Results from patent US20060084675A1, “Combined treatment with artesunate and an epidermal growth factor receptor kinase inhibitor” (priority 2004, published 2006).
Several values for one entry are separate records, joined by “and”; a condition that tells them apart may be missing. Identical values can stand only once. Like-named read-outs stand apart in the source and are kept apart here.

Assays:
[1] = intravenous application of 2 mg/kg; cited from earlier work
G-599GM cell line = assay: Growth inhibition assay (incl. isobolographic analysis); format: cell-based; settings: Homo sapiens; for IC50: read-out: IC50, drug alone
Experimental: (§1) Nine established GBM cell lines derived from histopathologically confirmed neurosurgical specimens obtained in the Department for Neurosurgery, University of Gottingen, Germany, were maintained in RPMI 1640 medium (BioWhittaker, Walkersville, Md., U.S.A.) supplemented with 10% heat-inactivated fetal calf serum and incubated in a humidified 5% CO2 atmosphere at 37° C. Medium was exchanged twice weekly, and cells were passaged upon reaching subconfluence. At the beginning of the study, all cell lines were beyond their 20th passage. The in vitro response to cytostatic drugs was evaluated by means of a growth inhibition assay. Aliquots of 5×10^3 cells/ml were seeded in culture medium, and drugs were added at different concentrations. Cells were counted 10 days after seeding. These growth curves represent the net outcome of cell proliferation and cell death. Cell numbers were quantitated each in eight independent determinations. […] G. and Peckham, M. J. (1979) Int. J. Radiat. Oncol. Biol. Phys. 5:85-91; Berenbaum, M. C. (1981) Adv. Cancer Res. 35:269-335).

14 GBM cell lines = assay: Growth inhibition assay, panel; format: cell-based; settings: Homo sapiens; ART alone; range over 14 cell lines
Excerpt: as §1, with “(1997) J. Biol. Chem. 272:2927-2935). The cell lines were provided by Dr. W. K. Cavenee (Ludwig Institute for Cancer Research, San Diego, Calif., U.S.A.). Cell culture conditions of these cell lines were as described ([…], et al. (1996) Cancer Res. 56:5079-5086). Nine” for “Nine”

G-1265GM = assay: Growth inhibition assay; format: cell-based; settings: Homo sapiens
Experimental: Nine established GBM cell lines derived from histopathologically confirmed neurosurgical specimens obtained in the Department for Neurosurgery, University of Gottingen, Germany, were maintained in RPMI 1640 medium (BioWhittaker, Walkersville, Md., U.S.A.) supplemented with 10% heat-inactivated fetal calf serum and incubated in a humidified 5% CO2 atmosphere at 37° C. Medium was exchanged twice weekly, and cells were passaged upon reaching subconfluence. At the beginning of the study, all cell lines were beyond their 20th passage.
(§2) The in vitro response to cytostatic drugs was evaluated by means of a growth inhibition assay. Aliquots of 5×10^3 cells/ml were seeded in culture medium, and drugs were added at different concentrations. Cells were counted 10 days after seeding. These growth curves represent the net outcome of cell proliferation and cell death. Cell numbers were quantitated each in eight independent determinations.

[2] = patients with advanced solid malignancies, phase I; cited from earlier work
U-87MG cells = assay: Growth inhibition assay; format: cell-based; settings: Homo sapiens, 240 h, single drug, cells counted 10 days after seeding, read-out: IC50 calculated from the dose-response curves
Experimental: (§3) The establishment of the parental human GBM cell line U-87MG and its derivatives which overexpress exogenous wild-type epidermal growth factor receptor (U-87MG.WT-2N), tyrosine kinase-deficient EGFR (U-87MG.DK-2N), EGFR with a genomic deletion of exons 2 to 7 (U-87MG.ΔEGFR), or control expression vector (U-87MG.LUX), respectively, has been described elsewhere (Huang, H-J S et al. (1997) J. Biol. Chem. 272:2927-2935). The cell lines were provided by Dr. W. K. Cavenee (Ludwig Institute for Cancer Research, San Diego, Calif., U.S.A.). Cell culture conditions of these cell lines were as described (Nagane M, et al. (1996) Cancer Res. 56:5079-5086).
as §2

U-87MG.WT-2N cells = assay: Growth inhibition assay; format: cell-based; settings: Homo sapiens
Experimental: as §3, §2

Structure (SMILES) | peak plasma concentration [1] [µM] | IC50 (G-599GM cell line; single drug) [µM] | IC50 (14 GBM cell lines) [µM] | IC50 (G-599GM cell line) [µM] | inhibition at 1 µM (G-599GM cell line; read-out: growth inhibition) [%] | inhibition at 1 µM (G-1265GM) [%] | average minimal steady state plasma concentration [2] | IC50 (U-87MG cells) [µM] | inhibition at 1 µM (U-87MG.WT-2N cells) [%]
C[C@H]1[C@H](OC(=O)CCC(=O)O)O[C@@H]2O[C@@]3(C)CC[C@H]4[C@H](C)CC[C@@H]1[C@@]24OO3 [ART, artesunate] | 6.88 ± 4.69 | 4.2 | 1.5 to 18.5 | – | – | – | – | – | –
C#Cc1cccc(Nc2ncnc3cc(OCCOC)c(OCCOC)cc23)c1 [OSI-774, [6,7-bis(2-methoxyethoxy)-4-quinazolin-4-yl]-(3-ethynylphenyl)amine] | – | – | – | 1.3 | 23.4 | -1.79 | 1.2 μg/ml and 3 μM | 8.6 | 33.8
